The values below are quoted from earlier work in article PMC10814857, “Functional Classification and Interaction Selectivity Landscape of the Human SH3 Domain Superfamily” (Cells, 2024).

Read-outs that look alike come from different tables or passages of the source.

Usually Kd stands for the concentration at which binding is half-saturated.

One data set has as its target SORBS2-1 SH3 domain. The note with it: SORBS2-1, ITC, Table S4; ref [29]; cited from earlier work. Here is the method: (§1) page 6: […] […] […] PAK2 […] PXXXPR PXXXPR 1.05 ITC [34] TRSVI ITSN1-2 Synthetic […] Exceptional [W/F][R/W]xSx[A/ 53 ITC [29] peptide G][F/Y][L/V]xGP[ W/L] NCK1-2 N-WASP GP[…] … 147 HSQC [64] VA[…] 199 PLCG1 SOS1 AAPV[…] … 0.20mM SPR [75] AADS[…] 0.40mM AAES[…] 0.70mM AAIA[…] 0.28mM BAIAP2L1 EspFUR45 IPP[…] … 0.5 nM ITC [76] (IRTKS) 9 SORBS2- Synthetic […] Exceptional XRXGXAYLXYVX 38 ITC [29] 1 peptide Synthetic RL[…](L/P) ...

Another data set concerns the target SRC SH3 domain. Set-up: method as in 3 sources, one per row (each row's own in cited_ref): ref [23] (a number printed in a supplementary file, which may have a reference list of its own: not looked up in the article's list) ||| ref [62] (a number printed in a supplementary file, which may have a reference list of its own: not looked up in the article's list) ||| ref [17] (a number printed in a supplementary file, which may have a reference list of its own: not looked up in the article's list). The conditions noted are these: FL, cited from earlier work.

The target of the next data set is GRB2-1 SH3 domain. The note with it: Table S4, cited from earlier work. Here is the method:
as §1

A further data set concerns the target NCK1-3 SH3 domain. The conditions noted are these: NCK1-3, HSQC, Table S4; ref [64]; cited from earlier work. Here is the method:
page 6: […][…] […] PAK2 […] PXXXPR PXXXPR 1.05 ITC [34] TRSVI ITSN1-2 Synthetic […] Exceptional [W/F][R/W]xSx[A/ 53 ITC [29] peptide G][F/Y][L/V]xGP[ W/L] NCK1-2 N-WASP GP[…] … 147 HSQC [64] VA[…] 199 PLCG1 SOS1 AAPV[…] … 0.20mM SPR [75] AADS[…] 0.40mM AAES[…] 0.70mM AAIA[…] 0.28mM BAIAP2L1 EspFUR45 IPP[…] … 0.5 nM ITC [76] (IRTKS) 9 SORBS2- Synthetic […] Exceptional XRXGXAYLXYVX 38 ITC [29] 1 peptide Synthetic RL[…](L/P) ...

For data set [1], the target named is NCF1-2 (p47phox) SH3 domain. Details: method as in ref [14] (a number printed in a supplementary file, which may have a reference list of its own: not looked up in the article's list). The note with it: FL, Table S4, ref [14]; cited from earlier work.
In the next data set the target is PLCG1 SH3 domain. The conditions noted are these: PLCG1, SPR, Table S4; ref [75]; cited from earlier work. As to the method:
as §1

The target of a further data set is STAC1 SH3 domain. The note with it: STAC1, ITC, Table S4; ref [59]; cited from earlier work. As to the method:
as §1

A further data set concerns the target STAC2 SH3 domain. The note with it: STAC2, ITC, Table S4; ref [59]; cited from earlier work. Here is the method:
as §1

Another data set concerns the target GRAP2-2 SH3 domain. The note with it: GRAP2-2, ITC, Table S4, cited from earlier work. Here is the method:
as §1

A further data set has as its target NCK1-1 SH3 domain. The note with it: NCK1-1, HSQC, Table S4; ref [64]; cited from earlier work.
A further data set deals with ABL1 SH3 domain. Details: method as in ref [67] (a number printed in a supplementary file, which may have a reference list of its own: not looked up in the article's list). The conditions noted are these: ABL1, FL, Table S4; ref [67]; cited from earlier work.
The target in the next data set is GRB2-2 SH3 domain. The note with it: Table S4, cited from earlier work. Here is the method:
as §1

Data set [2] concerns the target CRK-1 SH3 domain. Set-up: method as in ref [71] (a number printed in a supplementary file, which may have a reference list of its own: not looked up in the article's list). The note with it: CRK-1, SPR, Table S4; ref [71]; cited from earlier work.
Data set [3] has as its target CRK-1 SH3 domain. Set-up: method as in 3 sources, one per row (each row's own in cited_ref): ref [15] (a number printed in a supplementary file, which may have a reference list of its own: not looked up in the article's list) ||| ref [69] (a number printed in a supplementary file, which may have a reference list of its own: not looked up in the article's list) ||| ref [17] (a number printed in a supplementary file, which may have a reference list of its own: not looked up in the article's list). The note with it: CRK-1, FL, Table S4, cited from earlier work.

For the next data set, the target named is FYN SH3 domain. Set-up: method as in ref [73] (a number printed in a supplementary file, which may have a reference list of its own: not looked up in the article's list). The note with it: HSQC, Table S4, ref [73], cited from earlier work.
The next data set has as its target p85A SH3 domain. Details: method as in ref [3] (a number printed in a supplementary file, which may have a reference list of its own: not looked up in the article's list). The note with it: SPR, Table S4, ref [3]; cited from earlier work. For orientation: SPR reads the build-up and loss of mass on a sensor chip optically.
The target of data set [4] is bPIX (ARHGEF7) SH3 domain. Details: method as in 3 sources, one per row (each row's own in cited_ref): ref [33] (a number printed in a supplementary file, which may have a reference list of its own: not looked up in the article's list) ||| ref [60] (a number printed in a supplementary file, which may have a reference list of its own: not looked up in the article's list) ||| ref [34] (a number printed in a supplementary file, which may have a reference list of its own: not looked up in the article's list). The conditions noted are these: ITC, cited from earlier work. A general note: ITC needs no label: the signal is the heat of the interaction.

As for “RLPLRPPLPHTS [published synthetic peptide (SORBS2-1 ligand)]”, the Kd at SORBS2-1 SH3 domain was 121 µM.
As for “RALPPLPRY [published synthetic peptide (SRC ligand)]”, the Kd on SRC SH3 domain (Table S4, ref [62]) was 7.8 µM.
With IAGPPVPPRQST [published SOS1 peptide], the Kd on GRB2-1 SH3 domain (GRB2-1, ITC, ref [79]) is 82 µM.
Take “VAPPPPPPPPPPPG [published N-WASP peptide]”: on NCK1-3 SH3 domain, the Kd is above 1 µM.
As to PGPPPPPGLPSD [published N-WASP peptide], the equilibrium dissociation constant (Kd) on NCK1-3 SH3 domain is above 1 µM.
With “QPPSNPPPRPPAEARKKPSE [published p22phox peptide]”, the Kd in [1] was 0.64 µM.
As for DSPPAIPPRQPT [published SOS1 peptide], the Kd on GRB2-1 SH3 domain (GRB2-1, ITC, ref [79]) was 55 µM.
Turning to AAESPPLLPPREPV [published SOS1 peptide], at PLCG1 SH3 domain, the Kd was 0.7 µM.
As for “EDEPEIPLSPRPRP [published CaV1.1 peptide]”, the Kd at STAC1 SH3 domain is 3.92 µM; at STAC2 SH3 domain it was 9.31 µM.
With “NENEDKSPYPNPETTGEEDEEEPEMPVGPRPRPLSELHLKEKAVPMPE [published CaV1.2 peptide]”, the Kd at STAC2 SH3 domain is 19.3 µM.
Regarding ESPPLLPPREPV [published SOS1 peptide], the Kd at GRB2-1 SH3 domain (GRB2-1, ITC, ref [79]) was 117 µM.
With “QPPSNPPPRPPAEAR [published p22phox peptide]”, the Kd in data set [1] was 8.67 µM.
Take APSIDRSTKPP [published SLP-76 peptide]: on GRAP2-2 SH3 domain (ref [55]), the Kd was 0.675 µM.
APPPPPPSRGG [published N-WASP peptide]: the dissociation constant Kd at NCK1-1 SH3 domain was above 1000 µM.
Regarding RAPTMPPPLPP [published 3BP-1 peptide], the Kd on ABL1 SH3 domain was 34 µM.
With PSIDRSTKP [published SLP-76 peptide], on GRAP2-2 SH3 domain (ref [57]), the Kd is 30 µM.
Consider PKLPPKTYKREH [published SOS1 peptide], for which the Kd at GRB2-2 SH3 domain (GRB2-2, NMR, ref [47]) is 156 µM.
As to “LRTGEAYLRYVD [published synthetic peptide (SORBS2-1 ligand)]”, the equilibrium dissociation constant (Kd) on SORBS2-1 SH3 domain is 38 µM.
Regarding “SLPGPLTPVAEGQEIGMNTETSGTSAREKELSPPPGLPSKIGSISRQSSL [published ST12 peptide]”, the Kd on CRK-1 SH3 domain [2] was 0.91 µM.
Turning to YEVPPPVPPRRR [published SOS1 peptide], the Kd is 6 µM on CRK-1 SH3 domain [3] (ref [17]); 25 µM at SRC SH3 domain (Table S4, ref [17]); 5 µM at GRB2-1 SH3 domain (GRB2-1, FL, ref [17]).
In the case of AADSPPAIPPRQPT [published SOS1 peptide], the Kd at PLCG1 SH3 domain is 0.4 µM.
Turning to “PPRPTPVAPGSSKA [published PI3K-p85a peptide]”, the Kd at FYN SH3 domain is 0.3 mM.
Take HSKRPLPPLPSL [published peptide PD1R]: the Kd on p85A SH3 domain was 40 µM.
Turning to APTYPPPAPP, the Kd at ABL1 SH3 domain is 5 µM.
With PSPHGTRRHLPSPP [published SOS1 peptide], the Kd on GRB2-1 SH3 domain (GRB2-1, NMR, ref [47]) was 208 µM.
On to NRMYPPPPPALP [published N-WASP peptide], for which the Kd at NCK1-3 SH3 domain was above 1 µM.
AAPVPPPVPPRRRP [published SOS1 peptide]: the Kd at PLCG1 SH3 domain was 0.2 µM.
Consider LRRQAPPPPPPS [published N-WASP peptide], for which the Kd on NCK1-1 SH3 domain is above 1000 µM.
Take VSLARRPLPPLP [published peptide VSL12]: at SRC SH3 domain (Table S4, ref [23]), the Kd was 0.45 µM.
With “PAPSIDRSTKPPL [published SLP-76 peptide]”, the Kd is 0.181 µM on GRAP2-2 SH3 domain (ref [55]) and 9.7 µM at GRB2-2 SH3 domain (GRB2-2, ITC, ref [55]).
Regarding PPPALPPKKR [published C3G peptide], the Kd at CRK-1 SH3 domain [3] (ref [15]) is 1.9 µM; on CRK-1 SH3 domain [3] (ref [69]), 1.89 µM; at GRB2-1 SH3 domain (GRB2-1, FL, ref [15]), 142 µM.
Consider APTYSPPPPP, for which the Kd on ABL1 SH3 domain is 0.4 µM.
On to “DVADVPPPLPLKGSVADYGNLMENQDLLGSPTPPPPPPHQRHLPPPLPSKT [published DOCK180 peptide]”, for which, at CRK-1 SH3 domain [2], the Kd was 0.35 µM.
On to APSYSPPPPP, for which the equilibrium dissociation constant (Kd) at ABL1 SH3 domain was 1.5 µM.
In the case of PKPLPRFPKK [published SOS1 peptide], the Kd at GRB2-1 SH3 domain (GRB2-1, NMR, ref [47]) is 250 µM.
Consider “SAPSGPPPPPPSVL [published N-WASP peptide]”, for which the Kd on NCK1-1 SH3 domain is above 1000 µM; on NCK1-3 SH3 domain it was above 1 µM.
As for HSKYPLPPLPSL [published peptide PD1], the Kd at p85A SH3 domain was 120 µM.
With APPLPPRNRPRL [published peptide APP12], the Kd on SRC SH3 domain (Table S4, ref [23]) was 1.2 µM.
For “IQPPPVNRNLKPDRK [published Gab2b peptide]”, the Kd on GRB2-2 SH3 domain (GRB2-2, ITC, ref [48]) is 17.4 µM.
For “PPRPLPVAPGSSKA [published PI3K-p85a peptide]”, at FYN SH3 domain, the Kd was 0.05 mM.
Regarding TAAPPPPPPSRP [published N-WASP peptide], the Kd on NCK1-1 SH3 domain was above 1000 µM.
With “KRISPPTPKPRPPR [published PI3K-p85a peptide]”, the Kd on FYN SH3 domain (unit mM in the cell) was 0.003 mM.
In the case of VPPPVPPRRR [published SOS1 peptide], the Kd on GRB2-1 SH3 domain (GRB2-1, FL, ref [77]) was 5.6 µM.
Consider AAIAGPPVPPRQST [published SOS1 peptide], for which the Kd at PLCG1 SH3 domain was 0.28 µM.
With PVPPPVPPRRRP [published SOS1 peptide], the Kd was 38.6 µM on GRB2-1 SH3 domain (GRB2-1, ITC, ref [78]); 37 µM on GRB2-1 SH3 domain (GRB2-1, NMR, ref [47]); 117 µM at GRB2-2 SH3 domain (GRB2-2, ITC, ref [78]); 142 µM on GRB2-2 SH3 domain (GRB2-2, NMR, ref [47]).
Take “EETAPPVIAPRPDHTKSIYTRSVI [published PAK2 peptide]”: the Kd in [4] (Table S4, ref [34]) is 1.05 µM.
As for PPPVPPRRRR [published SOS1 peptide], the Kd was 5.2 µM at CRK-1 SH3 domain [3] (ref [15]) and 3.5 µM at GRB2-1 SH3 domain (GRB2-1, FL, ref [15]).
Turning to “KPSRPPRPSRPPPPTPRRPAS [published Itch peptide]”, the dissociation constant Kd in data set [4] (Table S4, ref [33]) is 1.59 µM.
